According to the NIST ThermoML archive (doi:10.1021/je900260g):
Numbers after ± are expanded uncertainties.

Test: mn = molality of the nth substance listed, in mol/kg
Conditions: 101 kPa, Liquid

NC(CO)(CO)CO [2-amino-2-(hydroxymethyl)-1,3-propanediol] + O
mass density [kg/m3]
Conditions | m1 = 1.667 | m1 = 2.294 | m1 = 2.945 | m1 = 3.66 | m1 = 4.271 | m1 = 4.908 | m1 = 5.586
298.15 K | 1043.81 ± 1.5 | 1053.88 ± 1.7 | 1065.01 ± 1.8 | 1077.08 ± 2 | 1086.34 ± 2.1 | 1098.03 ± 2.2 | 1106.97 ± 2.3
303.15 K | 1042.04 ± 1.5 | 1052.01 ± 1.6 | 1063.04 ± 1.8 | 1075.01 ± 1.9 | 1084.19 ± 2 | 1095.81 ± 2.2 | 1104.68 ± 2.3
310.15 K | 1039.3 ± 1.5 | 1049.14 ± 1.6 | 1060.05 ± 1.8 | 1071.88 ± 1.9 | 1080.98 ± 2 | 1092.51 ± 2.1 | 1101.29 ± 2.3
318.15 K | 1035.79 ± 1.4 | 1045.51 ± 1.6 | 1056.29 ± 1.7 | 1068.02 ± 1.9 | 1077.02 ± 2 | 1088.46 ± 2.1 | 1097.18 ± 2.2
323.15 K | 1033.4 ± 1.4 | 1043.01 ± 1.5 | 1053.79 ± 1.7 | 1065.43 ± 1.8 | 1074.4 ± 1.9 | 1085.8 ± 2.1 | 1094.46 ± 2.2
328.15 K | 1030.82 ± 1.4 | 1039.97 ± 1.5 | 1051.16 ± 1.6 | 1062.67 ± 1.8 | 1071.63 ± 1.9 | 1083.04 ± 2 | 1091.67 ± 2.1

O=S(=O)(O)CCCCNC(CO)(CO)CO [N-tris(Hydroxymethyl)methyl-4-aminobutanesulfonic acid] + O
mass density [kg/m3]
Conditions | m1 = 0.9378 | m1 = 1.552 | m1 = 2.487 | m1 = 4.08 | m1 = 4.796 | m1 = 5.154 | m1 = 5.549
298.15 K | 1067.23 ± 0.94 | 1100.73 ± 1.2 | 1143.55 ± 1.4 | 1200.45 ± 1.8 | 1218.48 ± 2 | 1228.57 ± 2 | 1235.88 ± 2.1
303.15 K | 1065.48 ± 0.92 | 1098.86 ± 1.1 | 1141.42 ± 1.4 | 1198.12 ± 1.8 | 1216.1 ± 1.9 | 1226.17 ± 2 | 1233.46 ± 2.1
310.15 K | 1062.76 ± 0.91 | 1095.93 ± 1.1 | 1138.29 ± 1.4 | 1194.76 ± 1.8 | 1212.71 ± 1.9 | 1222.74 ± 2 | 1229.98 ± 2
318.15 K | 1059.29 ± 0.89 | 1092.31 ± 1.1 | 1134.48 ± 1.4 | 1190.76 ± 1.8 | 1208.68 ± 1.9 | 1218.68 ± 2 | 1225.89 ± 2
323.15 K | 1056.9 ± 0.87 | 1089.87 ± 1.1 | 1131.99 ± 1.4 | 1188.17 ± 1.8 | 1206.07 ± 1.9 | 1216.06 ± 2 | 1223.25 ± 2
328.15 K | 1054.08 ± 0.85 | 1086.99 ± 1.1 | 1129.4 ± 1.4 | 1185.52 ± 1.8 | 1203.41 ± 1.9 | 1213.41 ± 1.9 | 1220.58 ± 2
